Results from the NIST ThermoML archive (doi:10.1016/j.jct.2016.09.030).

Assay: refractive index (Na D-line) (dimensionless); xn = mol fraction of the nth substance listed
Conditions: 100 kPa, Liquid, Standard Abbe refractometry

CCOC(=O)CCC(=O)OCC [diethyl butanedioate] + CC(C)CCO
refractive index
Conditions	x1 = 0.1	x1 = 0.2	x1 = 0.3	x1 = 0.3999	x1 = 0.5	x1 = 0.5999	x1 = 0.7	x1 = 0.7999	x1 = 0.9002	x1 = 1
288.15 K	1.41	1.4114	1.4129	1.4144	1.4158	1.4172	1.4184	1.4197	1.4208	1.4217
293.15 K	1.4079	1.4093	1.4108	1.4123	1.4136	1.415	1.4163	1.4175	1.4186	1.4195
298.15 K	1.4058	1.4072	1.4087	1.4101	1.4115	1.4128	1.414	1.4153	1.4164	1.4173
303.15 K	1.4037	1.4051	1.4065	1.4079	1.4093	1.4106	1.4119	1.4131	1.4142	1.4151
308.15 K	1.4016	1.4029	1.4043	1.4057	1.4071	1.4084	1.4096	1.4108	1.412	1.4129
313.15 K	1.3996	1.4008	1.4022	1.4036	1.4049	1.4062	1.4075	1.4087	1.4098	1.4108
318.15 K	1.3975	1.3988	1.4001	1.4014	1.4028	1.4041	1.4054	1.4066	1.4077	1.4088
323.15 K	1.3954	1.3966	1.398	1.3993	1.4006	1.4019	1.4032	1.4045	1.4056	1.4067
